Data on 1 molecule can be found in US20070197585A1, “Use of cysteinyl leukotriene 2 receptor antagonists” (priority 2004, published 2007).

One series addresses T1, CysLT2 receptor (Homo sapiens, UniProt Q9NS75).
T1 construct: expressed in transfected cells
T1 sequence (Q9NS75 1-346): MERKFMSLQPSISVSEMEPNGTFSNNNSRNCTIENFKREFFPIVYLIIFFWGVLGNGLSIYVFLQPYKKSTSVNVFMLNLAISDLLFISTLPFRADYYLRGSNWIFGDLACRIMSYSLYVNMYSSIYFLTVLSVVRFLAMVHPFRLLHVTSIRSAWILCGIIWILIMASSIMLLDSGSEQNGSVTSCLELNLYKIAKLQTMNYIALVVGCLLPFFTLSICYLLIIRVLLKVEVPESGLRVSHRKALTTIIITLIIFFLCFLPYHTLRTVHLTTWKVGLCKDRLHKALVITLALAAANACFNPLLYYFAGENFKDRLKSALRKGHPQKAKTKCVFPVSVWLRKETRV
Kind of series: LTD4-induced calcium flux (calcium mobilization, FLIPR) in CysLT2 receptor-transfected cells. The following applies: antagonist dose-response curve, read-out: IC50 of blocking LTD4-induced calcium flux, CysLT2 receptor. The format is cell-based. How it is done: (§1) Compounds may be screened for effects on LTD4 induced calcium mobilization in cells transfected with CysLT2 receptor, according to the following calcium mobilization assay.
(§2) Human embryonic kidney (HEK293T) cells transiently transfected with the CysLT2 receptor using LipofectAMINE™2000 reagent (Life Technologies) or Chinese hamster ovary (CHO-NFAT) cells stably transfected with the CysLT2 type receptor are plated into Poly-D-Lysine treated black-wall microplates (Biocoat™) at 5×10^4 cells per well. Cells are maintained for approximately 24 hours at 37° C. and 5% CO2. After 24 hours, cells are loaded with Fluo4 calcium indicator dye (Molecular Probes) in the presence of 2.5 mM probenecid for one hour. After washing, the cells are treated with agonist, (10 nM LTD4, BioMol), and maximum fluorescence measured in a Molecular Devices Fluorometric Imaging Plate Reader (FLIPR). Compounds screened for antagonism are added five minutes prior to addition of agonist.
(§3) Agonist and Standard Antagonist Functional Characterization on Human CysLT1 and CysLT2 Receptors
(A change in cytosolic calcium serves as a functional read-out for many receptors and channels.)

A further series has as its target T2, CysLT1 receptor (Homo sapiens, UniProt Q9Y271).
T2 construct: expressed in transfected cells; host or cells: HEK293T
T2 sequence (Q9Y271 1-337): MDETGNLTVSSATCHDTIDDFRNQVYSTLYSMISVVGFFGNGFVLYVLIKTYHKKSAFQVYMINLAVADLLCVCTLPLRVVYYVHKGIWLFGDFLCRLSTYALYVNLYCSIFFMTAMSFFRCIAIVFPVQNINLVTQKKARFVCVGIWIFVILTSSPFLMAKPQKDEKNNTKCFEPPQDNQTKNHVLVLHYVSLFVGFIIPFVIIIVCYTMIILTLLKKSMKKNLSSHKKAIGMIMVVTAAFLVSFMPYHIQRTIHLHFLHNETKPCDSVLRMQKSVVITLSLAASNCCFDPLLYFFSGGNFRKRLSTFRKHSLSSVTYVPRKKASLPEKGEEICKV
Kind of series: LTD4-induced calcium flux (calcium mobilization, FLIPR) in CysLT1 receptor transfected HEK293T cells. The format is cell-based. The conditions noted are these: antagonist dose-response curve, read-out: IC50 of blocking LTD4-induced calcium flux, CysLT1 receptor. How it is done: as §1, §2
Compounds of interest from the CysLT2 receptor screen may also be assayed in a CysLT1 receptor counter screen. Compounds of interest may be assayed using the same protocol described above in cells transfected with the CysLT1 receptor.
as §3

Regarding `CCCCCCCCCc1ccc(C(Sc2cccc(NC(=O)CC(=O)O)c2)C(=O)CCCC(=O)O)cc1` (stereo not drawn) [Compound (I), 6-({3-[(carboxyacetyl)amino]phenyl}thio)-6-(4-nonylphenyl)-5-oxohexanoic acid], the melting point lay in the range of 88 to 91 °C. Besides, at CysLT2 receptor, the IC50 is under 10 µM. For the same molecule, at CysLT1 receptor, the IC50 was under 10 µM.

For orientation: melting point means the temperature, or range, at which the solid turns liquid. One may read the IC50 as the point on the concentration scale where inhibition reaches its midpoint.
